Measurements published in ChEMBL document CHEMBL3272151, “Quantitative structure-activity relationship of chymotrypsin-ligand interactions” (J Med Chem, 1977).

Assays:
Conditions in all cases: Homo sapiens
[1] = Binding affinity to chymotrypsin (unknown origin)
[2] = Binding affinity to chymotrypsin (unknown origin) assessed as hydrolysis
[3] = Binding affinity to chymotrypsin (unknown origin) assessed as deacetylation

Compound	log(1/Km) [1]	logKcat [2]	log K [3]	other results
CCOC(=O)CNC(=O)c1ccccc1	2.64	–	–	–
CCOC(=O)C[C@H](NC(C)=O)C(=O)OCC	1.64	–	–	–
COC(=O)[C@H](C)NC(=O)c1ccncc1	1.54	-0.38	–	–
CC[C@H](C)OC(=O)[C@H](Cc1ccccc1)NC(C)=O	3.04	1.55	–	–
CC(C)C[C@@H](NC(=O)OCc1ccccc1)C(=O)Oc1ccc([N+](=O)[O-])cc1	5.62	–	-0.96	–
CC(C)C(=O)Oc1ccc([N+](=O)[O-])cc1	–	–	-2.45	–
CC[C@H](C)OC(=O)CNC(=O)c1ccccc1	2.95	-1.04	–	–
COC(=O)[C@H](NC(=O)CCl)C(C)C	–	–	–	log1/Ki [1]: 0.77
O=C(CNC(=O)c1ccccc1)Oc1ccc(F)cc1	3.85	-0.28	–	–
CC(C)CC(=O)Oc1ccc([N+](=O)[O-])cc1	–	–	-2.9	–
C[C@@H](NC=O)C(=O)Oc1ccc([N+](=O)[O-])cc1	5.21	–	-1.14	–
CS(=O)(=O)N[C@@H](Cc1ccccc1)C(=O)Oc1ccc(Cl)cc1	4.88	–	–	log K [2]: 1.56
COC(=O)[C@H](NC(=O)c1ccccc1)C(C)C	–	–	–	log1/Ki [1]: 2.28
CC(=O)N[C@H](C(=O)OCCCl)C(C)C	1.72	-0.64	–	–
CC(C)[C@H](NC(=O)OCc1ccccc1)C(=O)Oc1ccc([N+](=O)[O-])cc1	4.75	–	-0.93	–
CCCOC(=O)CNC(=O)c1ccccc1	2.72	-0.9	–	–
CCOC(=O)[C@H](C)NC(C)=O	0.6	–	–	–
COC(=O)[C@H](C)NC(C)=O	0.21	0.11	–	–
COC(=O)[C@H](C)NC(=O)c1cccs1	1.82	-0.34	–	–
COC(=O)[C@H](C)NC(=O)c1cccnc1	1.43	-0.24	–	–
CC(=O)N[C@@H](Cc1ccccc1)C(=O)O[C@@H](C)C1CCCCC1	3.28	1.37	–	–
CC(=O)N[C@@H](Cc1ccccc1)C(=O)O[C@H](C)c1ccccc1	4.3	2.02	–	–

Compound	log(1/Km) [1]	logKcat [2]	log K [3]	other results
CCOC(=O)[C@@H](NC(C)=O)c1ccccc1	2.48	-0.05	–	–
CCCCCCCC(=O)Oc1ccc([N+](=O)[O-])cc1	–	–	-1.47	–
CCC[C@H](NC(C)=O)C(=O)OCCCl	3.1	0.57	–	–
CC(=O)N[C@@H](C)C(=O)Oc1ccc([N+](=O)[O-])cc1	3.32	–	–	–
COC(=O)[C@@H](Cc1ccccc1)NC(C)=O	–	–	–	log1/Ki [1]: 2.64
CCCC(=O)Oc1ccc([N+](=O)[O-])cc1	–	–	-2.22	–
O=COc1ccc([N+](=O)[O-])cc1	–	–	0.39	–
CC(C)COC(=O)CNC(=O)c1ccccc1	2.62	-0.78	–	–
CCCC[C@H](NC(=O)OCc1ccccc1)C(=O)Oc1ccc([N+](=O)[O-])cc1	5.24	–	1.1	–
CC(C)(C)CC(=O)Oc1ccc([N+](=O)[O-])cc1	–	–	-3.82	–
CC(C)(C)C(=O)Oc1ccc([N+](=O)[O-])cc1	–	–	-3.69	–
COC(=O)[C@@H](C)NC(=O)c1ccccc1N	2.8	–	–	–
O=CNCC(=O)Oc1ccc([N+](=O)[O-])cc1	4.8	–	-0.61	–
C[C@H](OC(=O)CNC(=O)c1ccccc1)c1ccccc1	3.77	-0.13	–	–
CCC[C@H](NC(C)=O)C(=O)OC(C)C	1.51	0.46	–	–
O=C(CCc1c[nH]c2ccccc12)Oc1ccc([N+](=O)[O-])cc1	–	–	-0.47	–
O=C(CNC(=O)c1ccccc1)Oc1ccc(Cl)cc1	3.94	-0.31	–	–
CS(=O)(=O)N[C@@H](Cc1ccccc1)C(=O)Oc1ccccc1	4.57	1.51	–	–
CC[C@H](NC(=O)OCc1ccccc1)C(=O)Oc1ccc([N+](=O)[O-])cc1	5.74	–	0.43	–
COc1ccc(OC(=O)CNC(=O)c2ccccc2)cc1	3.99	-0.25	–	–
CC(C)[C@@H](NC(=O)OCc1ccccc1)C(=O)Oc1ccc([N+](=O)[O-])cc1	5.13	–	-2.1	–
O=C(CCc1ccccc1)Oc1ccc([N+](=O)[O-])cc1	–	–	-0.73	–

Compound	log(1/Km) [1]	logKcat [2]	log K [3]	other results
COC(=O)[C@@H](Cc1ccccc1)NC=O	3.6	–	–	–
C[C@H](NC=O)C(=O)Oc1ccc([N+](=O)[O-])cc1	4.88	–	-0.61	–
CC(=O)N[C@@H](Cc1ccccc1)C(=O)Oc1ccc([N+](=O)[O-])cc1	4.62	1.89	–	–
COC(=O)[C@@H](C)NC(=O)c1cccs1	2.16	–	–	–
O=C(N[C@@H](Cc1ccccc1)C(=O)Oc1ccc([N+](=O)[O-])cc1)OCc1ccccc1	6.32	–	1.59	–
CCOC(=O)[C@@H](Cc1ccc(O)cc1)NC(=O)c1cccnc1	–	–	–	log1/Ki [1]: 3.1
COC(=O)[C@@H](C)NC(=O)c1cccnc1	2.22	–	–	–
COC(=O)[C@@H](C)NC(=O)c1ccccc1	2.48	–	–	–
COC(=O)[C@H](C)NC(=O)c1ccc2ccccc2n1	3.66	-2.4	–	–
O=C(Cc1ccccc1)Oc1ccc([N+](=O)[O-])cc1	–	–	-1.65	–
NC(=O)C[C@H](NC(=O)OCc1ccccc1)C(=O)Oc1ccc([N+](=O)[O-])cc1	4.87	–	1.53	–
CCC[C@@H](NC(C)=O)C(=O)OC	–	–	–	log1/Ki [1]: 0.95
CC[C@@H](C)OC(=O)CNC(=O)c1ccccc1	2.7	–	–	–
O=C(CNC(=O)c1ccccc1)OCc1ccncc1	4.04	-0.25	–	–
CCCCOC(=O)CNC(=O)c1ccccc1	2.95	-0.76	–	–
O=C(CNC(=O)c1ccccc1)Oc1cccc([N+](=O)[O-])c1	4.17	-0.28	–	–
CCC[C@@H](NC(=O)CCl)C(=O)OC	–	–	–	log1/Ki [1]: 1.23
CS(=O)(=O)N[C@@H](Cc1ccccc1)C(=O)Oc1ccc([N+](=O)[O-])cc1	5.37	–	–	log K [2]: 1.56
CCOC(=O)C(NC(C)=O)C(=O)OCC	1.51	-0.15	–	–
O=C(CCCl)Oc1ccc([N+](=O)[O-])cc1	–	–	-1.67	–
O=C(Oc1ccc([N+](=O)[O-])cc1)c1cccc([N+](=O)[O-])c1	–	–	-2.85	–
CC(=O)c1ccc(OC(=O)[C@H](Cc2ccccc2)NS(C)(=O)=O)cc1	4.89	1.54	–	–

Compound	log(1/Km) [1]	logKcat [2]	log K [3]	other results
C[C@H](NC(=O)OCc1ccccc1)C(=O)Oc1ccc([N+](=O)[O-])cc1	4.7	–	0.48	–
COC(=O)[C@H](C)NC(=O)c1ccccn1	1.74	-1.15	–	–
O=C(CCCCl)Oc1ccc([N+](=O)[O-])cc1	–	–	-1.27	–
CCCCCC[C@H](NC(C)=O)C(=O)OC	2.53	0.79	–	–
CCCCC[C@H](NC(C)=O)C(=O)OC	2.79	1.13	–	–
CC(=O)N[C@@H](Cc1ccccc1)C(=O)O[C@H](C)C1CCCCC1	3.31	1.29	–	–
CCCC(=O)NCC(=O)Oc1ccc([N+](=O)[O-])cc1	3.87	–	-0.06	–
O=C(CI)Oc1ccc([N+](=O)[O-])cc1	–	–	-0.1	–
O=C(CCl)Oc1ccc([N+](=O)[O-])cc1	–	–	0.47	–
CCCCCC(=O)Oc1ccc([N+](=O)[O-])cc1	–	–	-1.44	–
Nc1ccc(OC(=O)CNC(=O)c2ccccc2)cc1	3.77	-0.3	–	–
CS(=O)(=O)N[C@@H](Cc1ccccc1)C(=O)Oc1cccc([N+](=O)[O-])c1	5.06	1.49	–	–
COC(=O)[C@@H](C)NC(=O)c1ccncc1	1.57	–	–	–
CC(=O)NCCCC(=O)Oc1ccc([N+](=O)[O-])cc1	–	–	-2.21	–
O=C(N[C@H](Cc1ccccc1)C(=O)Oc1ccc([N+](=O)[O-])cc1)OCc1ccccc1	6.42	–	-0.74	–
CCC(=O)NCC(=O)Oc1ccc([N+](=O)[O-])cc1	3.95	–	-0.25	–
COC(=O)[C@H](C)NC(=O)c1ccccc1	2.01	-0.64	–	–
O=C(CCCc1ccccc1)Oc1ccc([N+](=O)[O-])cc1	–	–	-0.87	–
COC(=O)[C@H](C)NC(=O)c1ccccc1N	2.33	-0.62	–	–
CCC[C@H](NC(=O)CCl)C(=O)OC	2.3	–	–	–
NC(=O)C[C@@H](NC(=O)OCc1ccccc1)C(=O)Oc1ccc([N+](=O)[O-])cc1	5.84	–	-1.65	–
COC(=O)[C@@H](C)NC(=O)c1ccccn1	1.77	–	–	–

Compound	log(1/Km) [1]	logKcat [2]	log K [3]	other results
O=C(CNC(=O)OCc1ccccc1)Oc1ccc([N+](=O)[O-])cc1	5.31	–	-0.39	–
COCC(=O)Oc1ccc([N+](=O)[O-])cc1	–	–	-0.46	–
O=C(Cc1c[nH]c2ccccc12)Oc1ccc([N+](=O)[O-])cc1	–	–	-2.52	–
O=C(CCCCc1ccccc1)Oc1ccc([N+](=O)[O-])cc1	–	–	-1.68	–
CCC(=O)Oc1ccc([N+](=O)[O-])cc1	–	–	-2.1	–
CCCCCCC(=O)Oc1ccc([N+](=O)[O-])cc1	–	–	-1.21	–
CC(C)C[C@H](NC(=O)OCc1ccccc1)C(=O)Oc1ccc([N+](=O)[O-])cc1	5.32	–	0.92	–
CC(=O)N[C@H](C(=O)Oc1ccc([N+](=O)[O-])cc1)C(C)C	3.31	–	–	–
O=C(CCCCCl)Oc1ccc([N+](=O)[O-])cc1	–	–	-1.37	–
CC(=O)Oc1ccc([N+](=O)[O-])cc1	–	–	-2	–
CC[C@@H](NC(=O)OCc1ccccc1)C(=O)Oc1ccc([N+](=O)[O-])cc1	5.71	–	-1.45	–
O=C(CCCc1c[nH]c2ccccc12)Oc1ccc([N+](=O)[O-])cc1	–	–	-0.83	–
COC(=O)[C@H](NC(C)=O)C(C)C	–	–	–	log1/Ki [1]: 0.71
C[C@@H](NC(=O)OCc1ccccc1)C(=O)Oc1ccc([N+](=O)[O-])cc1	5.08	–	-1.05	–
CCC[C@@H](NC(=O)c1ccccc1)C(=O)OC	–	–	–	log1/Ki [1]: 2.75
CCC[C@@H](NC(=O)OCc1ccccc1)C(=O)Oc1ccc([N+](=O)[O-])cc1	5.5	–	-0.82	–
CCC[C@H](NC(=O)OCc1ccccc1)C(=O)Oc1ccc([N+](=O)[O-])cc1	5.57	–	0.19	–
CCCCC(=O)Oc1ccc([N+](=O)[O-])cc1	–	–	-1.77	–
CCOC(=O)[C@@H](Cc1ccc(O)cc1)NC(C)=O	–	–	–	log1/Ki [1]: 2.4
